According to ChEMBL document CHEMBL4483862, “Open-source discovery of chemical leads for next-generation chemoprotective antimalarials” (2018):

System: Plasmodium berghei
Assay: Luciferase/luciferin-expressing antifolate-resistant parasites were used to infect a culture of HepG2 cells that were pre-incubated with compounds. Infected hepatocytes emit light due to the luciferase reaction. Assay results are presented as the percent inhibition of light emission compared to control. […]
Type: functional
Conditions: sporozoite; for IC90: read-out: LUCIFERASE INFECTION ASSAY - IC90
[1] = read-out: LUCIFERASE INFECTION ASSAY - IC50

Compound	IC90 [µM]	further results
Cc1csc(CNc2nc(-c3cccnc3)nc3sc(C)c(C)c23)n1	5.63	IC50 (PBLUC_HILL_SLOPE 1.92, PBLUC_R_SQUARED 0.84, read-out: LUCIFERASE INFECTION ASSAY - IC50): 1.79 µM
CC(C)c1ccc2c(ccc[n+]2C)c1	> 10.5	IC50 (PBLUC_HILL_SLOPE 4.53, PBLUC_R_SQUARED 0.451, read-out: LUCIFERASE INFECTION ASSAY - IC50): 8.36 µM
COc1ccc(/C=C(/C(=O)Nc2ccc(Cl)cc2)c2nc3ccccc3s2)cc1O	4.29	IC50 (HEPG2TOX_HILL_SLOPE 8.13, HEPG2TOX_R_SQUARED 0.744, PBLUC_HILL_SLOPE 10.1, PBLUC_R_SQUARED 0.615, read-out: LUCIFERASE INFECTION ASSAY - IC50): 3.45 µM
Cc1ccc(NS(=O)(=O)c2cccc(C(=O)OC(C)C(=O)c3cc(C)n(-c4ccc(Cl)cc4)c3C)c2)cc1 (stereo not given)	3.6	IC50 (HEPG2TOX_HILL_SLOPE 1.57, HEPG2TOX_R_SQUARED 0.97, PBLUC_HILL_SLOPE 17.7, PBLUC_R_SQUARED 0.634, read-out: LUCIFERASE INFECTION ASSAY - IC50): 3.18 µM
COc1ccc(-c2cnc3cnc(-c4ccc(C(=O)NC5CCCC5)cc4)cn23)cc1	7.76	IC50 (PBLUC_HILL_SLOPE 11.3, PBLUC_R_SQUARED 0.296, read-out: LUCIFERASE INFECTION ASSAY - IC50): 6.39 µM
CC(C)c1ccc(/C=C/C(=O)NN=c2nc[nH]c3ccccc23)cc1	> 10	IC50 (HEPG2TOX_HILL_SLOPE 2.75, HEPG2TOX_R_SQUARED 0.845, PBLUC_HILL_SLOPE 8.02, PBLUC_R_SQUARED 0.305, read-out: LUCIFERASE INFECTION ASSAY - IC50): 8.64 µM
CCOc1cc(CN(CC)CC(=O)Nc2c(F)cccc2F)ccc1OCc1cccs1	> 10	IC50 [1]: > 10 µM
Cc1ccc(SCc2ccccc2C(=O)Nc2cc(Cl)ccc2O)cc1	> 8.6	IC50 [1]: > 8.6 µM
O=C(Nc1nc2ccccc2[nH]1)c1cc2ccccc2cc1O	> 10	IC50 (PBLUC_HILL_SLOPE 1.13, 0.699, PBLUC_R_SQUARED 0.533, 0.940, read-out: LUCIFERASE INFECTION ASSAY - IC50): 1.94 µM
CC(=O)c1cccc(-c2ccc3ncc(-c4cccc(C(F)(F)F)c4)n3n2)c1	0.407	IC50 (HEPG2TOX_HILL_SLOPE 2.43, HEPG2TOX_R_SQUARED 0.95, PBLUC_HILL_SLOPE 15.4, PBLUC_R_SQUARED 0.713, read-out: LUCIFERASE INFECTION ASSAY - IC50): 0.353 µM
COc1cc2[nH]c(CSc3nnc(-c4ccccc4F)n3C3CC3)nc(=O)c2cc1OC	> 10	IC50 (PBLUC_HILL_SLOPE 1.81, PBLUC_R_SQUARED 0.0649, read-out: LUCIFERASE INFECTION ASSAY - IC50): > 10 µM
O=C(Nc1ccc(SC(F)(F)F)cc1)Nc1cccnc1N1CCC(C(F)(F)F)CC1	2.33	IC50 (HEPG2TOX_HILL_SLOPE 11.5, HEPG2TOX_R_SQUARED 0.688, PBLUC_HILL_SLOPE 15.9, PBLUC_R_SQUARED 0.276, read-out: LUCIFERASE INFECTION ASSAY - IC50): 2.03 µM
Nc1ccc(-c2cnn3c(N4CCOCC4)ccnc23)cc1	8.75	IC50 (FFLUC_HILL_SLOPE 1.28, FFLUC_R_SQUARED 0.893, PBLUC_HILL_SLOPE 0.747, PBLUC_R_SQUARED 0.679, read-out: LUCIFERASE INFECTION ASSAY - IC50): 0.462 µM
Cc1nc(SCc2cccc(C(F)(F)F)c2)c2c(-c3cccs3)csc2n1	> 10	IC50 (FFLUC_HILL_SLOPE 83.3, FFLUC_R_SQUARED 0.372, read-out: LUCIFERASE INFECTION ASSAY - IC50): > 10 µM
Nc1ccc(-c2cnc3ccc(NCc4ccc(F)cc4)nn23)cc1	0.372	IC50 (HEPG2TOX_HILL_SLOPE 3.34, HEPG2TOX_R_SQUARED 0.665, PBLUC_HILL_SLOPE 6.16, PBLUC_R_SQUARED 0.867, read-out: LUCIFERASE INFECTION ASSAY - IC50): 0.26 µM
c1ccc(C2(CNc3ncnc4ccccc34)CCC2)cc1	5.71	IC50 (HEPG2TOX_HILL_SLOPE 1.34, HEPG2TOX_R_SQUARED 0.743, PBLUC_HILL_SLOPE 15.9, 1.42, PBLUC_R_SQUARED 0.162, 0.799, read-out: LUCIFERASE INFECTION ASSAY - IC50): 2.35 µM
CN(C)C(=O)c1cccc(-c2cnc3c(NC=O)cc(-c4ccsc4)cn23)c1	> 8.45	IC50 [1]: > 8.45 µM
O=[N+]([O-])c1cc(-c2nc(-c3cc(C(F)(F)F)cc(C(F)(F)F)c3)no2)cs1	> 8.06	IC50 (HEPG2TOX_HILL_SLOPE 11.5, HEPG2TOX_R_SQUARED 0.674, read-out: LUCIFERASE INFECTION ASSAY - IC50): > 8.06 µM
Cc1nn(-c2ccccc2)c(N2CCCC2)c1/C=N/O	> 10	IC50 [1]: > 10 µM
CCC(C)NC(=S)N/N=C/c1cc(Cl)cc(Cl)c1O (stereo not given)	> 10.3	IC50 [1]: > 10.3 µM
COCC(C)n1c(C)cc(C(=O)COC(=O)[C@@H]2CCCN2C(=O)c2cccs2)c1C (stereo not given in full)	> 10	IC50 [1]: > 10 µM
Cc1cccc(NC(=O)CN(C)C(=O)/C=C/c2ccccc2)c1C	> 10	IC50 [1]: > 10 µM

Compound	IC90 [µM]	further results
O=C1C=CC(=O)N1c1cc(F)ccc1F	> 15.8	IC50 (FFLUC_HILL_SLOPE 1.16, FFLUC_R_SQUARED 0.312, PBLUC_HILL_SLOPE 23.3, PBLUC_R_SQUARED 0.503, read-out: LUCIFERASE INFECTION ASSAY - IC50): 15.2 µM
COC(=O)c1c(NC(=O)c2ccoc2)c2cc(NCC3CC=CCC3)cnc2n1CC(C)C (stereo not given)	> 7.32	IC50 (FFLUC_HILL_SLOPE 3.67, FFLUC_R_SQUARED 0.106, read-out: LUCIFERASE INFECTION ASSAY - IC50): > 7.32 µM
O=C(Nc1ccc(N2CCCC2)cn1)c1cccc(F)c1	0.0621	–
Cc1ccc(C(c2cc(Cl)c3cccnc3c2O)N2CCCC2)cc1 (stereo not given)	4.12	IC50 (FFLUC_HILL_SLOPE 12.7, FFLUC_R_SQUARED 0.41, HEPG2TOX_HILL_SLOPE 6.94, HEPG2TOX_R_SQUARED 0.0505, PBLUC_HILL_SLOPE 13.5, PBLUC_R_SQUARED 0.562, read-out: LUCIFERASE INFECTION ASSAY - IC50): 3.5 µM
CCOC(=O)c1sc(N)c(C#N)c1CSc1nc(-c2ccccc2)cs1	3.69	IC50 (HEPG2TOX_HILL_SLOPE 1.34, HEPG2TOX_R_SQUARED 0.985, PBLUC_HILL_SLOPE 11.8, PBLUC_R_SQUARED 0.536, read-out: LUCIFERASE INFECTION ASSAY - IC50): 3.06 µM
O=C(Nc1ccc(-n2cnc3ccccc32)cc1)c1ccc(NC(=O)C2CC2)cc1	> 10	IC50 (HEPG2TOX_HILL_SLOPE 1.98, HEPG2TOX_R_SQUARED 0.988, PBLUC_HILL_SLOPE 3.86, PBLUC_R_SQUARED 0.781, read-out: LUCIFERASE INFECTION ASSAY - IC50): 6.59 µM
C=C(c1c[nH]c2ccccc12)c1c[nH]c2ccccc12	> 10	IC50 (PBLUC_HILL_SLOPE 132, PBLUC_R_SQUARED 0.705, read-out: LUCIFERASE INFECTION ASSAY - IC50): 9.85 µM
CC(C)(C)c1ccccc1NC(=O)Nc1nc(C(N)Cc2ccc(C(F)(F)F)cc2)cs1 (stereo not given)	3.44	IC50 (PBLUC_HILL_SLOPE 9.7, PBLUC_R_SQUARED 0.271, read-out: LUCIFERASE INFECTION ASSAY - IC50): 2.74 µM
Clc1sc2ccccc2c1-c1nnc(SCc2nc3ccccn3c2Br)n1-c1ccccc1	> 10	IC50 (PBLUC_HILL_SLOPE 2.01, PBLUC_R_SQUARED 0.722, read-out: LUCIFERASE INFECTION ASSAY - IC50): 6.1 µM
c1csc(-c2cn3c(-c4ccsc4)cnc3cn2)c1	> 11.6	IC50 (PBLUC_HILL_SLOPE 10.9, PBLUC_R_SQUARED 0.0923, read-out: LUCIFERASE INFECTION ASSAY - IC50): > 11.6 µM
COC(=O)CCSc1c2ccc(Cl)cc2nc2ccc(OC)cc12	0.454	IC50 (PBLUC_HILL_SLOPE 2.8, PBLUC_R_SQUARED 0.704, read-out: LUCIFERASE INFECTION ASSAY - IC50): 0.207 µM
Clc1ccc2nc(CSc3nnc4c(n3)[nH]c3ccccc34)cn2c1	9.67	IC50 (FFLUC_HILL_SLOPE 14.4, FFLUC_R_SQUARED 0.465, PBLUC_HILL_SLOPE 2.72, PBLUC_R_SQUARED 0.431, read-out: LUCIFERASE INFECTION ASSAY - IC50): 4.31 µM
COc1ccc2cc(C(=O)NNC(=O)c3ccccn3)c(C)nc2c1	> 10	IC50 [1]: 8.4 µM
COc1cccc(-c2ccc3nnc(-c4ccc5c(c4)OCO5)n3c2)c1	0.981	IC50 (HEPG2TOX_HILL_SLOPE 1.68, HEPG2TOX_R_SQUARED 0.984, PBLUC_HILL_SLOPE 2.05, PBLUC_R_SQUARED 0.784, read-out: LUCIFERASE INFECTION ASSAY - IC50): 0.337 µM
Cc1nc(C(C)(C)C)nc2sc(C(=O)N(C)CC(=O)Nc3cccc(F)c3)c(C)c12	3.71	IC50 (PBLUC_HILL_SLOPE 21.5, PBLUC_R_SQUARED 0.514, read-out: LUCIFERASE INFECTION ASSAY - IC50): 3.35 µM
Brc1ccc(Nn2c(-c3ccccc3)nc3c2C2C=CC=CC2C=N3)cc1 (stereo not given)	5.07	IC50 [1]: 3.6 µM
COc1ccc(-n2c(SCc3nc4ccccc4s3)nc3ccccc32)cc1	> 10	IC50 [1]: > 10 µM
O=S(=O)(Nc1cccc(C(F)(F)F)c1)c1ccc(S(=O)(=O)c2ncc(C(F)(F)F)cc2Cl)s1	> 5.99	IC50 [1]: > 5.99 µM
COc1ccc(CC(N)c2csc(NC(=O)Nc3ccccc3C(C)(C)C)n2)cc1 (stereo not given)	4.27	IC50 (PBLUC_HILL_SLOPE 104, PBLUC_R_SQUARED 0.386, read-out: LUCIFERASE INFECTION ASSAY - IC50): 4.18 µM
COCC(C)n1c(C)cc(C(=O)COC(=O)c2cccn2C)c1C (stereo not given)	6.18	IC50 [1]: 1.82 µM
COc1cc2c(cc1NC(=O)Cn1cnc(C#N)n1)oc1ccccc12	> 10	IC50 (HEPG2TOX_HILL_SLOPE 16.6, HEPG2TOX_R_SQUARED 0.479, read-out: LUCIFERASE INFECTION ASSAY - IC50): > 10 µM
